Measurements from ChEMBL document CHEMBL5236643, “Discovery and characterization of orally bioavailable 4-chloro-6-fluoroisophthalamides as covalent PPARG inverse-agonists” (Bioorg Med Chem, 2023).
pEC50, pIC50: −log10 of the molar value. ≈ marks a conversion by molar mass, not a printed value. Calls of active or inactive are those of the source. The calls are words filed in the database; no cut-off is given here.

Tests used:
[1] = molecular target: T1, Peroxisome proliferator-activated receptor gamma (Homo sapiens, UniProt P37231); assay: Inverse agonist activity at GST tagged human PPARgamma LBD (231 to 505 residues) expressed in Escherichia coli BL21(DE3) assessed as recruitment of fluorescein labeled corepressor NCOR2 Smrt-ID2 peptide to PPARgamma LBD incubated for 24 hrs by LanthaScreen TR-FRET assay
T1 sequence (P37231 whole entry): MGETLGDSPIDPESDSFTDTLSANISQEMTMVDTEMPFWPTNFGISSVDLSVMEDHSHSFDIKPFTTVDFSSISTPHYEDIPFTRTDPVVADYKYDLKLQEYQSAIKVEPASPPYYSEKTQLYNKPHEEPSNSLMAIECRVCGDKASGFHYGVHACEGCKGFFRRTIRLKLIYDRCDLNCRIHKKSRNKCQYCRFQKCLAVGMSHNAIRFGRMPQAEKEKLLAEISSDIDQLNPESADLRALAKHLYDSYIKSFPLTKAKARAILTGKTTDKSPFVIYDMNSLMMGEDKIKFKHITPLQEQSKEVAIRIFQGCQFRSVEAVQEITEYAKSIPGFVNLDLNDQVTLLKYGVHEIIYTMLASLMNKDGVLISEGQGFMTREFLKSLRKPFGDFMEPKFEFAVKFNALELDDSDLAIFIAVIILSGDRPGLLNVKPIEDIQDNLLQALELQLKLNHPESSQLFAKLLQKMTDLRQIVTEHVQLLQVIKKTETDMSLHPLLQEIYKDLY

[2] = molecular target: T1, Peroxisome proliferator-activated receptor gamma; assay: Inverse agonist activity at human PPARgamma in human RT112/84 transfected with NLuc-fused FABP4 assessed as reduction in PPARgamma transactivation incubated for 6 to 18 hrs by Nano-Glo luciferase assay; format: cell-based
[3] = Antiproliferative activity against human UM-UC-9 assessed as inhibition of cell proliferation by measuring maximum efficacy after 7 days by IncuCyte live-cell imaging assay; format: functional; details: UM-UC-9, 168 h, time 7 day
[4] = Antiproliferative activity against human UM-UC-9 assessed as inhibition of cell proliferation measured after 7 days by IncuCyte live-cell imaging assay; details: UM-UC-9, 168 h
[5] = Microsomal stability in human liver microsomes assessed as intrinsic clearance at 1 uM measured upto 60 mins in presence of NADPH by HPLC-MS/MS analysis; format: ADME, Microsome; details: read-out: CLH (converted)
[6] = Stability in rat hepatocytes assessed as intrinsic clearance at 1 uM incubated for 1 hr by HPLC-MS/MS analysis; format: ADME, cell-based, Hepatocyte; details: read-out: CLH (converted)
[7] = Stability of compound in GSH at pH 7.4 assessed as parent compound remaining at 10 mM and measured after 1 hrs by HPLC-UV analysis; format: physicochemical; details: GSH solution, read-out: Stability
[8] = Stability of compound in GSH at pH 7.4 assessed as parent compound remaining at 10 mM and measured after 2 hrs by HPLC-UV analysis; format: physicochemical; details: GSH solution, read-out: Stability
[9] = Stability of compound in GSH at pH 7.4 assessed as parent compound remaining at 10 mM and measured after 4 hrs by HPLC-UV analysis; format: physicochemical; details: GSH solution, read-out: Stability
[10] = Stability of compound in GSH at pH 7.4 assessed as parent compound remaining at 10 mM and measured after 24 hrs by HPLC-UV analysis; format: physicochemical; details: GSH solution, read-out: Stability
[11] = Stability of compound in cysteine at pH 7.4 assessed as parent compound remaining at 10 mM and measured after 1 hrs by HPLC-UV analysis; format: physicochemical; details: cysteine solution, read-out: Stability
[12] = Stability of compound in cysteine at pH 7.4 assessed as parent compound remaining at 10 mM and measured after 2 hrs by HPLC-UV analysis; format: physicochemical; details: cysteine solution, read-out: Stability
[13] = Stability of compound in cysteine at pH 7.4 assessed as parent compound remaining at 10 mM and measured after 4 hrs by HPLC-UV analysis; format: physicochemical; details: cysteine solution, read-out: Stability
[14] = Stability of compound in cysteine at pH 7.4 assessed as parent compound remaining at 10 mM and measured after 24 hrs by HPLC-UV analysis; format: physicochemical; details: cysteine solution, read-out: Stability
[15] = Apparent permeability across basolateral to apical side in human Caco-2 cells at 2 uM incubated for 2 hrs by LC-MS/MS analysis; format: ADME, cell-based
[16] = Thermodynamic solubility of compound at pH 6.5 PBS buffer; format: physicochemical; details: read-out: Therm_solubility
[17] = molecular target: T2, Nuclear receptor subfamily 1 group I member 2 (Homo sapiens, UniProt O75469); assay: Transactivation of human PXR in human HepG2 cells co-expressing luciferase gene under control of CYP3A4 promoter assessed as increase in luciferase activity incubated for 24 hrs by luminescence based analysis; format: ADME, cell-based
T2 sequence (O75469 whole entry): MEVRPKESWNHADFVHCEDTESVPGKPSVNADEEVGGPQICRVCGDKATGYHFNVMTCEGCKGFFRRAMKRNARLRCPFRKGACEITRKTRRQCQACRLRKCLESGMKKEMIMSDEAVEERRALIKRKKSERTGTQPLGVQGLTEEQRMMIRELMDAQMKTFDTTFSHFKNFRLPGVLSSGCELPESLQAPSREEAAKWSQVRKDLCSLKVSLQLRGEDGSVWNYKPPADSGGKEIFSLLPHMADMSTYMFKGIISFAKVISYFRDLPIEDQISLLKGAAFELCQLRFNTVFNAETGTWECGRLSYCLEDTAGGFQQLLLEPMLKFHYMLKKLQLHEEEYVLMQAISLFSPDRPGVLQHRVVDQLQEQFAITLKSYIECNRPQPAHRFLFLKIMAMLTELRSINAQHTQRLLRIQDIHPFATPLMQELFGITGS

[18] = AUClast in Wistar rat at 0.3 mg/kg,iv measured upto 24 hrs by HPLC-MS/MS analysis; format: ADME, organism-based; design: dose 0.3 mg/kg, time < 24 hrs, route iv; details: in vivo
[19] = Clearance in Wistar rat at 0.3 mg/kg,iv measured upto 24 hrs by HPLC-MS/MS analysis; format: ADME, organism-based; details: in vivo
[20] = Volume of distribution at steady state in Wistar rat at 0.3 mg/kg,iv measured upto 24 hrs by HPLC-MS/MS analysis; format: ADME, organism-based; details: in vivo, read-out: Vdss
[21] = Half life in Wistar rat at 0.3 mg/kg,iv measured upto 24 hrs by HPLC-MS/MS analysis; format: ADME, organism-based; details: in vivo
[22] = AUClast in NMRI-nu/nu mouse at 100 mg/kg,po measured upto 24 hrs by HPLC-MS/MS analysis; format: ADME, organism-based; design: time < 24 hrs, dose 100 mg/kg, route po; details: in vivo
[23] = Cmax in NMRI-nu/nu mouse at 100 mg/kg,po measured upto 24 hrs by HPLC-MS/MS analysis; format: ADME, organism-based; design: time < 24 hrs, dose 100 mg/kg, route po; details: in vivo
[24] = Tmax in NMRI-nu/nu mouse at 100 mg/kg,po measured upto 24 hrs by HPLC-MS/MS analysis; format: ADME, organism-based; details: in vivo
[25] = molecular target: T3, Peroxisome proliferator-activated receptor gamma (Mus musculus) (UniProt P37238); assay: Inverse agonist activity at PPARgamma in NMRI-nu/nu mouse assessed as reduction in Fabp4 mRNA expression in adipose tissue at 100 mg/kg for 3 days and measured 6 hrs last dose by qPCR analysis; format: organism-based; details: time 3.0 day
T3 sequence (whole entry): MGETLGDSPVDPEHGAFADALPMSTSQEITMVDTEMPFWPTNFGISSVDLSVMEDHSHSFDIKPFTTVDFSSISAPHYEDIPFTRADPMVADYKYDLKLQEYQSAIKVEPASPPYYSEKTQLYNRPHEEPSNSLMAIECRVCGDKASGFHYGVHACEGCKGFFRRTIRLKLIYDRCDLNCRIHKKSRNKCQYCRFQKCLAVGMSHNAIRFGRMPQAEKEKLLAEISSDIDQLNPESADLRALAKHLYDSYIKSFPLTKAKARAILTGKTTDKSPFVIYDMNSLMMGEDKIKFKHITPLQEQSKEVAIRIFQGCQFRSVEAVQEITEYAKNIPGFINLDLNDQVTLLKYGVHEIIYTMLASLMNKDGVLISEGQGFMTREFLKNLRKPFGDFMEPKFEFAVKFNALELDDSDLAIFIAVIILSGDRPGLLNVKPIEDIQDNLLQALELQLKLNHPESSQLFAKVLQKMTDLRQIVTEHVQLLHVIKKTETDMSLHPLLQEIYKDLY

Cc1cccc(CNC(=O)c2ccc(Cl)c(C(=O)Nc3ccccc3)c2)c1
pEC50 [1]: 5.52
pIC50 [2]: < 5.30

O=C(NCc1ccccc1)c1ccc(F)c(C(=O)Nc2ccccc2)c1
pEC50 [1]: < 5.30
pIC50 [2]: < 5.30

O=C(NCc1ccc(F)c(F)c1)c1ccc(Cl)c(C(=O)Nc2ccccc2)c1
pEC50 [1]: 5.76
Emax [3]: 103%

O=C(NCc1ccccc1)c1cc(Cl)cc(C(=O)Nc2ccccc2)c1
pEC50 [1]: < 5.30
pIC50 [2]: < 5.30

Cc1cc(N2CCOCC2)cnc1NC(=O)c1cc(C(=O)NCc2ccc(F)c(F)c2)c(F)cc1Cl
pIC50 [4]: 7.01
Emax [3]: 99%
CLint scaled at 1 µM [5]: 14.7 mL/min/kg
CLint scaled at 1 µM [6]: 42.5 mL/min/kg
remaining at 1 h, 10000 µM [7]: 100%
remaining at 2 h, 10000 µM [8]: 100%
remaining at 4 h, 10000 µM [9]: 100%
remaining at 24 h, 10000 µM [10]: 100%
remaining at 1 h, 10000 µM [11]: 100%
remaining at 2 h, 10000 µM [12]: 100%
remaining at 4 h, 10000 µM [13]: 100%
remaining at 24 h, 10000 µM [14]: 100%
Papp B→A at 2 h, 2 µM [15]: 10.9 ×10⁻⁶ cm/s
solubility thermodynamic [16]: 1.6 µg/mL (≈ 3.08 µM)
pIC50 [17]: < 4.30
AUClast [18]: 0.35 kg·h/L
clearance [19]: 46.7 mL/min/kg
Vd [20]: 0.84 L/kg
half-life [21]: 0.21 h
AUC(0-t) at 24 h [22]: 520 ng·h/mL
Cmax [23]: 73 nM
Tmax [24]: 7 h
Activity [25]: inactive

O=C(NCc1ccc(Cl)cc1)c1ccc(Cl)c(C(=O)Nc2ccccc2)c1
pEC50 [1]: 5.14
pIC50 [2]: < 5.30

Cc1cc(C(=O)NCc2ccccc2)cc(C(=O)Nc2ccccc2)c1Cl
pEC50 [1]: < 4.48
pIC50 [2]: < 5.30

Cc1ccccc1CNC(=O)c1ccc(Cl)c(C(=O)Nc2ccccc2)c1
pEC50 [1]: 5.75
pIC50 [2]: 5.98
